Measurements taken from PubChem BioAssay AID1996.
In brackets after ≈: the same amount, converted by molar mass.

settings: buffer; pH 7.4; 200.0 µM

Compound | solubility kinetic [µg/mL]
O=C(/C=C/c1ccco1)NC(=S)Nc1ccc(C(=O)O)cc1 | > 47.4
O=C(Nc1cscc1S(=O)(=O)c1ccccc1)c1ccccc1Cl | 10.3 (≈ 27.3 µM)
CN1CCN(C(=O)NCC23CC4CC(CC(C4)C2)C3)CC1 | > 43.7
COc1ccccc1/C=N/OCc1ccc(C#N)cc1 | 0.9 (≈ 3.38 µM)
COc1ccc(C(=O)NC2CCCc3ccccc32)cc1[N+](=O)[O-] (stereo not given) | 2.4 (≈ 7.35 µM)
Cc1ccc(C(=O)NCC(c2ccc(F)cc2)N2CCOCC2)s1 (stereo not given) | > 52.3
CCOC(=O)CNC(=O)CN1CCC(c2nc3ccccc3[nH]2)CC1 | > 51.7
CCOC(=O)/C(C#N)=C1\CC2CCC1(C)C2(C)C (stereo not given) | 1.7 (≈ 6.87 µM)
O=C(O)CNC(=O)/C=C/c1c(Cl)cccc1Cl | > 41.1
COc1cccc(CN2CCN(C3CCOCC3)CC2CCO)c1 (stereo not given) | 46.3 (≈ 138 µM)
COc1ccc(NC(=O)CC(C)n2ccnc2)cc1 (stereo not given) | > 38.9
CC1CCCC(NC(=O)COC(=O)[C@@H](NC(=O)c2ccccc2Cl)C(C)C)C1C (stereo not given in full) | 46.1 (≈ 109 µM)
CC1(C)C(=O)OC(c2ccc([N+](=O)[O-])cc2)C(C)(C)C1=O (stereo not given) | 2.5 (≈ 8.58 µM)
CCCn1c(O)c(N=N)c2ccccc21 | > 30.5
O=S1(=O)CCC(NC(=S)Nc2ccccc2)C1 (stereo not given) | > 40.6
C=CCNC(=O)c1cc(-c2ccncc2)nc2c(C)cc(C)cc12 | 2 (≈ 6.3 µM)
COc1ccc(C2NC(=O)NC3=C2CCc2ccccc23)cc1 (stereo not given) | 18.1 (≈ 59.1 µM)
O=C(NC1CCSC1=O)C1CCCCC1 (stereo not given) | > 34.1
COc1cc(CN=Cc2c(O)n(C(C)(C)C)c(=O)[nH]c2=O)cc(OC)c1 | 2.8 (≈ 7.75 µM)
CC(C)c1nc(C#N)c(NN)o1 | > 24.9

Compound | solubility kinetic [µg/mL]
Cc1cc(C)c(C(=O)NNC(=O)c2cccnc2)c(C)c1 | > 42.5
CCCNC(=O)c1ccc(COc2ccc(Cl)cc2)o1 | 33 (≈ 112 µM)
CC(=O)Oc1ccc(C(=O)NCc2ccco2)cc1 | 37.6 (≈ 145 µM)
Cc1cccc(C(=O)OCC(=O)NCCN2C(=O)CSC2=O)c1[N+](=O)[O-] | > 57.2
Cc1cccc(C(=O)O/N=C(/c2ccccc2)c2ccncc2)c1 | < 0.3
COc1ccc(CCNC(=O)Nc2cccc([N+](=O)[O-])c2)cc1OC | 39.8 (≈ 115 µM)
CCOc1cc(C(=O)OCc2cc(=O)n3c(C)csc3n2)ccc1OC | 3.1 (≈ 8.28 µM)
CCOC(=O)C1(Cc2cccc(F)c2)CCN(CC2CC2)CC1 | > 47.9
Cc1c(NC(=O)C(c2ccccc2)c2ccccc2)cccc1C(=O)O | > 51.8
CC(=O)C1C(=O)c2c(cccc2[N+](=O)[O-])C1=Nc1cccc(Cl)c1 (stereo not given) | 1.6 (≈ 4.67 µM)
O=C(Nc1ccc2c(c1)COC2=O)c1ccc(Cl)c(Cl)c1 | 3.5 (≈ 10.9 µM)
CC(=O)c1cn(Cc2ccccc2F)c2ccccc12 | < 0.6
N#C/C(=C\c1cn(CC(=O)O)c2ccccc12)C(=O)NCc1ccccc1 | 48.9 (≈ 136 µM)
O=C(Nc1ccccn1)c1ccc(Cl)s1 | 30.9 (≈ 129 µM)
CCOC(=O)N1CCN(c2nc(-c3ccccc3)c3ccccc3n2)CC1 | < 0.2
O=C(CSc1ncccn1)NCc1ccc2c(c1)OCO2 | > 45.5
Cc1cc(C)c(C(=O)NCC(=O)c2ccccc2)c(C)c1 | 8.8 (≈ 31.3 µM)
COc1ccc(C(CC(=O)N2CCCC2)c2ccc(F)cc2)cc1 (stereo not given) | 44.3 (≈ 135 µM)
NC(=O)c1cc(S(=O)(=O)NCCc2ccccc2)cs1 | 40.3 (≈ 130 µM)
CC(=O)N(CCc1ccccc1)Cc1cc2ccc(C)c(C)c2[nH]c1=O | 17.4 (≈ 49.9 µM)

Compound | solubility kinetic [µg/mL]
COc1ccc(OCC(N)=O)cc1 | > 27.2
CCCCC(=O)Nc1cnc(NC(=O)c2cccs2)cc1C | > 47.6
CN(C1(C)CCS(=O)(=O)C1)S(=O)(=O)c1ccc(F)cc1 (stereo not given) | > 48.2
Cc1ccc(-c2c[n+](=O)c3c(n2[O-])CCC3)cc1 | > 36.3
COc1ccc(CSC2=CS(=O)(=O)c3ccccc3N2)cc1 | 9.8 (≈ 29.4 µM)
O=c1c2ccccc2ncn1Cc1ccc2c(c1)OCO2 | 15.1 (≈ 53.9 µM)
Cc1ccc(Cl)cc1NC(=O)c1ccccn1 | 6.3 (≈ 25.5 µM)
O=C(COc1ccc(F)cc1)N1CCCCCCC1 | 38.8 (≈ 146 µM)
CC1CCC2(CC1)NC(=O)N(CC(=O)Nc1ccc3c(c1)OCO3)C2=O (stereo not given) | 15.6 (≈ 43.4 µM)
CCNC(=O)NNC(=O)C1CC(c2cccnc2)=NO1 (stereo not given) | > 41.6
N#CCNc1ccc([N+](=O)[O-])cc1C#N | 30.3 (≈ 150 µM)
NC(=O)c1ccc(=O)n(Cc2ccc(F)c(F)c2)c1 | > 39.6
COc1cc(C2(c3ccc(O)c(OC)c3)C(=O)N(C)c3ccc(C)cc32)ccc1O | 51.4 (≈ 127 µM)
Cc1ccc2cc(C)c(SCC(=O)NCC3CCCO3)nc2c1 (stereo not given) | 48.2 (≈ 146 µM)
CC(=O)NC(=S)Nc1ccc(NC(=O)c2cccnc2)cc1 | 10.2 (≈ 32.4 µM)
O=C(OC1CCOC1=O)c1ccc(N2CCCC2)c([N+](=O)[O-])c1 (stereo not given) | > 48
Cc1ccnc(N2CCCC(C(=O)Nc3ccc(C)c(C)c3)C2)n1 (stereo not given) | 1.4 (≈ 4.32 µM)
CC(=O)N1CCN(C(=O)c2cc(C)oc2C)CC1 | > 37.5
COc1ccc2[nH]cc(C(=O)CN3CC(C)CC(C)C3)c2c1 (stereo not given) | > 45.1
Cc1ccc(CN2C(=O)CSC2c2ccccc2F)cc1 (stereo not given) | 14 (≈ 46.5 µM)
